≈ marks a conversion by molar mass, not a printed value. Some results are limits rather than exact numbers.

The target in the assay is T1, 20S catalytic subunit of the proteasome (multicatalytic proteinase complex) (Bos taurus, UniProt Q32KL2).
T1 construct: was purified to homogeneity from bovine brain according to published methods; from tissue; host or cells: bovine brain
Description: 20S proteasome chymotryptic activity, fluorogenic peptide cleavage. Type of assay: biochemical, bovine. Conditions: 50 μM succinyl-leu-leu-val-tyr-7-amino-4-methyl coumarin, 15 minutes at 37° C, pH7.5. As to the method:
Compounds of this invention prepared according to the method of Example 1 were tested as follows. The 20S catalytic subunit of the proteasome (also known as the multicatalytic proteinase complex) was purified to homogeneity from bovine brain according to published methods (Wilk S. and Orlowski, M, 40 842 J. Neurochem (1983)). The chymotryptic activity of the complex is measured by the increase in fluorescence following cleavage of the substrate peptide succinyl-leucine-leucine-valine-tyrosine-7-amino-4-methyl coumarin. The standard in vitro assay consists of 2 μg 20S proteasome, 0.1-100 μg/ml proteasome inhibitor in 200 μl 50 mM HEPES, containing 0.1% sodium dodecyl sulphate, pH7.5. The proteolytic reaction is initiated by the addition of 50 μM fluorogenic peptide substrate and allowed to progress for 15 minutes at 37° C. The reaction is terminated by the addition of 100 μl of 100 mM acetate buffer, pH4.0. The rate of proteolysis is directly proportional to the amount of liberated aminomethylcoumarin which is measured by fluorescent spectroscopy (EX 370 nm, EM 430 nm).
In turn, `COc1ccc2c(c1)C(CC(=O)NC(C)(C)CO)CC2=O` (stereo not shown) [Compound 113] registered an IC50 of over 10 mg/L.

`COc1ccc2c(c1)C(CC(=O)NC(CC(C)C)C(N)=O)CC2=O` (mixture of isomers) [Compound 1] came in with an IC50 of 5 mg/L.

Consider `COc1ccc2c(c1)C(CC(=O)NC(CC(C)C)C(=O)NC(CC(C)C)C(=O)NC(C)C(N)=O)CC2=O` (mixture of isomers) [Compound 125], for which the IC50 was over 10 mg/L.

For the compound `COc1ccc2c(c1)C(CC(=O)N1CCCC1C(N)=O)CC2=O` (mixture of isomers) [Compound 55], the IC50 was over 10 mg/L.

`COc1ccc2c(c1)C(CC(=O)N1CCCC1CO)CC2=O` (stereo not shown) [Compound 119] registered an IC50 of over 10 mg/L.

For the compound `CCCC(NC(=O)CC1CC(=O)c2ccc(OC)cc21)C(=O)NC(CC(C)C)C(N)=O` (mixture of isomers) [Compound 57], the IC50 is over 10 mg/L.

On to `COc1ccc2c(c1)C(CC(=O)NCc1ccccc1OC)CC2=O` (stereo not shown) [Compound 107], for which the IC50 was over 10 mg/L.

In the case of `COc1ccc2c(c1)C(CC(=O)NC1CCN(Cc3ccccc3)CC1)CC2=O` (stereo not shown) [Compound 110], the 50% inhibitory concentration (IC50) is over 10 mg/L.

Take `COc1ccc2c(c1)C(CC(=O)N1CCCC1)CC2=O` (stereo not shown) [Compound 64]: the IC50 was over 10 mg/L.

Compound `COc1ccc2c(c1)C(CC(=O)N[C@@H](CC(C)C)C(=O)N[C@@H](C(=O)NCC(N)=O)C(C)C)CC2=O` (stereo partly shown) [Compound 90] showed an IC50 of over 10 mg/L.

Compound `COc1ccc2c(c1)C(CC(=O)NC(CC(C)C)C(=O)NC(CC(C)C)C(=O)NC13CC4CC(CC(C4)C1)C3)CC2=O` (mixture of isomers) [Compound 190] gave an IC50 of over 10 mg/L.

Compound `COc1ccc2c(c1)C(CC(=O)N1Cc3ccccc3CC1C(N)=O)CC2=O` (mixture of isomers) [Compound 25] returned an IC50 of over 10 mg/L.

Take `COc1ccc2c(c1)C(CC(=O)NC(CC(C)C)C(=O)NC(CC(C)C)C(=O)NC(C)C(N)=O)CC2=O` (mixture of isomers) [Compound 126]: the IC50 was over 10 mg/L.

In turn, `COc1ccc2c(c1)C(CC(=O)N1CCC(O)CC1)CC2=O` (stereo not shown) [Compound 81] returned an IC50 of over 10 mg/L.

Regarding `COc1ccc2c(c1)C(CC(=O)N1CCCCC1)CC2=O` (stereo not shown) [Compound 67], the IC50 is over 10 mg/L.

`COc1ccc2c(c1)C(CC(=O)N(C)CCO)CC2=O` (stereo not shown) [Compound 115] returned an IC50 of over 10 mg/L.

With `COc1ccc2c(c1)C(CC(=O)NC(CC1CCCCC1)C(=O)NC(CC1CCCCC1)C(N)=O)CC2=O` (mixture of isomers) [Compound 35], the IC50 was over 10 mg/L.

In the case of `COc1ccc2c(c1)C(CC(=O)Nc1ccccc1)CC2=O` (stereo not shown) [Compound 122], the IC50 was over 10 mg/L.

The compound `COc1ccc(CN(C(=O)CC2CC(=O)c3ccc(OC)cc32)c2ccccn2)cc1` (stereo not shown) [Compound 149] showed an IC50 of over 10 mg/L.

The compound `COc1ccc2c(c1)C(CC(=O)N1CCOCC1)CC2=O` (stereo not shown) [Compound 63] returned an IC50 of over 10 mg/L.

`COc1ccc2c(c1)C(CC(=O)NCCCc1ccccc1)CC2=O` (racemic) [Compound 161] came in with an IC50 of over 50 mg/L.

With `COc1ccc2c(c1)C(CC(=O)NC(CC(C)C)C(=O)NC(CC(C)C)C(N)=O)CC2=O` (mixture of isomers) [Compound 6], the IC50 is over 10 mg/L.

`CCCCC(NC(=O)CC1CC(=O)c2ccc(OC)cc21)C(=O)NC(CC(C)C)C(N)=O` (mixture of isomers) [Compound 22]: the IC50 was over 10 mg/L.

On to `COc1ccc(NC(=O)CC2CC(=O)c3ccc(OC)cc32)cc1` (racemic) [Compound 162], for which the IC50 is over 50 mg/L.

As for `COc1ccc2c(c1)C(CC(=O)Nc1ccc(Cl)cn1)CC2=O` (racemic) [Compound 156], the IC50 was over 10 mg/L.

For `COc1ccc2c(c1)C(CC(=O)NC(CC(C)C)C(=O)NC(CCCNC(=N)N)C(N)=O)CC2=O` (mixture of isomers) [Compound 129], the IC50 is over 10 mg/L.

The compound `COc1ccc2c(c1)C(CC(=O)NC(CC(C)C)C(=O)NC(CC(C)C)C(=O)N(C)Cc1ccccc1)CC2=O` (mixture of isomers) [Compound 179] registered an IC50 of over 10 mg/L.

As for `COc1ccc2c(c1)C(CC(=O)NC(CC(N)=O)C(=O)NC(CC(C)C)C(N)=O)CC2=O` (mixture of isomers) [Compound 95], the half-inhibitory concentration (IC50) worked out at 10 mg/L.

`CCCC(NC(=O)C(CC(C)C)NC(=O)CC1CC(=O)c2ccc(OC)cc21)C(N)=O` (mixture of isomers) [Compound 139] gave an IC50 of over 10 mg/L.

With `COc1ccc2c(c1)C(CC(=O)NC(Cc1ccccc1)C(=O)NC(CC(C)C)C(N)=O)CC2=O` (mixture of isomers) [Compound 27], the IC50 is 10 mg/L.

As for `COc1ccc2c(c1)C(CC(=O)NC(Cc1ccccc1)C(=O)NC(CC(C)C)C(=O)NCC(N)=O)CC2=O` (mixture of isomers) [Compound 45], the IC50 was over 10 mg/L.

`COc1ccc2c(c1)C(CC(=O)NCC(=O)NC(CC(C)C)C(=O)NCC(N)=O)CC2=O` (mixture of isomers) [Compound 42] showed an IC50 of over 10 mg/L.

`COc1ccc2c(c1)C(CC(=O)NC(CC(C)C)C(=O)NC(CC(C)C)C(=O)N1CCOCC1)CC2=O` (mixture of isomers) [Compound 174] came in with an IC50 of over 10 mg/L.

In the case of `COc1ccc2c(c1)C(CC(=O)NC(CC(C)C)C(=O)NC(CC(C)C)C(=O)O)CC2=O` (mixture of isomers) [Compound 171], the IC50 was over 10 mg/L.

The compound `COc1ccc2c(c1)C(CC(=O)NC(CO)C(O)c1ccccc1)CC2=O` (stereo not shown) [Compound 118] displayed an IC50 of over 10 mg/L.

`CCCCCCCNC(=O)CC1CC(=O)c2ccc(OC)cc21` (stereo not shown) [Compound 70]: the IC50 was over 10 mg/L.

With `COc1ccc(NC(=O)CC2CC(=O)c3ccc(OC)cc32)cc1` (stereo not shown) [Compound 121], the IC50 was over 10 mg/L.

`CCC[C@@H](NC(=O)[C@H](CC(C)C)NC(=O)CC1CC(=O)c2ccc(OC)cc21)C(=O)NCC(N)=O` (stereo partly shown) [Compound 87] displayed an IC50 of over 10 mg/L.

Compound `COc1ccc2c(c1)C(CC(=O)NC(CC(C)C)C(=O)NC(CC(C)C)C(N)=O)CC2=O` (mixture of isomers) [Compound 5] had an IC50 of over 10 mg/L.

`COc1ccc2c(c1)C(CC(=O)NC(CC(C)C)C(=O)NC(CC(C)C)C(=O)NCc1ccncc1)CC2=O` (mixture of isomers) [Compound 192]: the half-maximal inhibitory concentration (IC50) is 10 mg/L.

As to `COc1ccc2c(c1)C(CC(=O)N[C@@H](CC(C)C)C(=O)N[C@H](CC(C)C)C(=O)NCC(N)=O)CC2=O` (single isomer, unassigned) [Compound 50], the IC50 was determined as 0.5 mg/L (≈ 0.995 µM).

`COc1ccc2c(c1)C(CC(=O)N1CCCC1CO)CC2=O` (mixture of isomers) [Compound 164] displayed an IC50 of over 50 mg/L.

`COc1ccc2c(c1)C(CC(=O)NC(C(=O)NC(CC(C)C)C(N)=O)C(C)C)CC2=O` (mixture of isomers) [Compound 30] had an IC50 of over 10 mg/L.

Take `COc1ccc2c(c1)C(CC(=O)NC(CC(C)C)C(N)=O)CC2=O` (mixture of isomers) [Compound 3]: the IC50 is over 10 mg/L.

As to `COc1ccc2c(c1)C(CC(=O)NC(CC(C)C)C(=O)NC(CC(=O)O)C(N)=O)CC2=O` (mixture of isomers) [Compound 130], the IC50 is over 10 mg/L.

Turning to `COc1ccc2c(c1)C(CC(=O)N(c1ccc(O)cc1)c1ccc3ccccc3c1)CC2=O` (stereo not shown) [Compound 144], the IC50 is over 10 mg/L.

As for `COc1ccc2c(c1)C(CC(=O)NC(CC1CCCCC1)C(=O)NC(CC(C)C)C(N)=O)CC2=O` (mixture of isomers) [Compound 13], the IC50 is over 10 mg/L.

`COc1ccc2c(c1)C(CC(=O)NC(CC(C)C)C(=O)NC(CC(C)C)C(=O)N1CCCC1)CC2=O` (mixture of isomers) [Compound 176] displayed an IC50 of over 10 mg/L.

`COc1ccc2c(c1)C(CC(=O)NC(CC1CCCCC1)C(=O)NC(CC(C)C)C(=O)NCC(N)=O)CC2=O` (mixture of isomers) [Compound 46] came in with an IC50 of over 10 mg/L.

In the case of `COc1ccc2c(c1)C(CC(=O)Nc1ccc(I)cc1)CC2=O` (racemic) [Compound 152], the IC50 is over 10 mg/L.

Compound `COc1ccc2c(c1)C(CC(=O)NC(CC(C)C)C(=O)NC(CC(C)C)C(=O)NCC1CCCCC1)CC2=O` (mixture of isomers) [Compound 188] returned an IC50 of over 10 mg/L.

`COc1ccc2c(c1)C(CC(=O)NC(CC(C)C)C(=O)N1CCCC1C(N)=O)CC2=O` (mixture of isomers) [Compound 54] came in with an IC50 of over 10 mg/L.

Compound `COc1ccc2c(c1)C(CC(=O)NC(CC(C)C)C(=O)NC(CC(C)C)C(=O)NCCCc1ccccc1)CC2=O` (mixture of isomers) [Compound 186] returned an IC50 of over 10 mg/L.

In the case of `COc1ccc2c(c1)C(CC(=O)NC(CO)C(=O)NC(CC(C)C)C(N)=O)CC2=O` (mixture of isomers) [Compound 61], the IC50 is over 10 mg/L.

Consider `CCCCC(NC(=O)CC1CC(=O)c2ccc(OC)cc21)C(=O)NC(CC(C)C)C(N)=O` (mixture of isomers) [Compound 23], for which the IC50 is over 10 mg/L.

The values are drawn from patent US5834487A, “Inhibition of 26S and 20S proteasome by indanones” (CV Therapeutics, priority 1996, dated 1998).
